≈ marks a conversion by molar mass, not a printed value.
Key:
[1] = Kinetic solubility of the compound in phosphate buffer at pH 6.5 by nephelometry analysis; format: physicochemical; conditions: read-out: Kinetic_solubility
[2] = Kinetic solubility of the compound in 0.01M HCl at pH 2 by nephelometry analysis; format: physicochemical; conditions: read-out: Kinetic_solubility
[3] = physchem; conditions: octanol/water, pH 7.4
[4] = system: Plasma; assay: Average plasma concentration in Swiss mouse at 30 mg/kg, po after up to 8 hrs; format: ADME, organism-based; set-up: dose 30 mg/kg, route oral; conditions: in vivo
[5] = Plasma concentration in Swiss mouse at 30 mg/kg, po after 0.5 hrs; format: ADME, organism-based; set-up: dose 30 mg/kg, route oral
[6] = Plasma concentration in Swiss mouse at 30 mg/kg, po after 8 hrs; format: ADME, organism-based; set-up: dose 30 mg/kg, route oral
[7] = system: Plasma; assay: Average plasma concentration in Swiss mouse at 30 mg/kg, po after up to 24 hrs; format: ADME, organism-based; set-up: dose 30 mg/kg, route oral; conditions: in vivo
[8] = Plasma concentration in Swiss mouse at 30 mg/kg, po after 24 hrs; format: ADME, organism-based; set-up: dose 30 mg/kg, route oral

solubility kinetic [1]	solubility kinetic [2]	logD [3]	Cave [4]	concentration at 0.5 h [5]	concentration at 8 h [6]	Cave [7]	concentration at 24 h [8]	SMILES
3.1 µg/mL (≈ 9.03 µM)	> 100 µg/mL	3.1	–	–	–	–	–	COc1ccc(-c2cc(-c3ccc(-n4cccn4)cc3)cnc2N)cn1
6.3 µg/mL (≈ 15.9 µM)	> 100 µg/mL	2.7	–	–	–	–	–	COc1ccc(-c2cc(-c3ccc(S(=O)(=O)NC4CC4)cc3)cnc2N)cn1
6.3 µg/mL (≈ 18.3 µM)	> 100 µg/mL	2.4	–	–	–	–	–	COc1ccc(-c2cc(-c3ccc(-n4cncn4)cc3)cnc2N)cn1
25 µg/mL (≈ 58.4 µM)	> 100 µg/mL	2.4	3400 nM	4110 nM	840 nM	–	–	Nc1ncc(-c2ccc(C(=O)N3CCOCC3)cc2)cc1-c1ccc(C(F)(F)F)nc1
12.5 µg/mL (≈ 29.5 µM)	> 100 µg/mL	2.7	–	–	–	–	–	COc1ccc(-c2cc(-c3ccc(S(C)(=O)=O)cc3C(F)(F)F)cnc2N)cn1
1.6 µg/mL (≈ 4.63 µM)	> 100 µg/mL	4.2	–	–	–	–	–	COc1ccc(-c2cc(-c3ccc(C(F)(F)F)cc3)cnc2N)cn1
50 µg/mL (≈ 150 µM)	50 µg/mL (≈ 150 µM)	1.8	–	–	–	–	–	CNC(=O)c1ccc(-c2cnc(N)c(-c3ccc(OC)nc3)c2)cc1
12.5 µg/mL (≈ 39.4 µM)	> 100 µg/mL	2.4	–	–	–	–	–	COc1ccc(-c2cc(-c3ccc4nccn4c3)cnc2N)cn1
25 µg/mL (≈ 81.1 µM)	> 100 µg/mL	2.8	–	–	–	–	–	COc1ccc(-c2cnc(N)c(-c3ccc(OC)nc3)c2)cn1
> 100 µg/mL	> 100 µg/mL	2.5	–	–	–	–	–	COc1ccc(-c2cc(-c3ccc(C(=O)NCCN4CCCC4)cc3)cnc2N)cn1
25 µg/mL (≈ 56.8 µM)	> 100 µg/mL	3.9	–	–	–	–	–	CN1CCN(C(=O)c2ccc(-c3cnc(N)c(-c4ccc(C(F)(F)F)cc4)c3)cc2)CC1
> 100 µg/mL	> 100 µg/mL	2.9	–	–	–	–	–	CN1CCN(C(=O)c2ccc(-c3cnc(N)c(-c4ccc(C(F)(F)F)nc4)c3)cc2)CC1
6.3 µg/mL (≈ 19.2 µM)	> 100 µg/mL	2.9	–	–	–	–	–	COc1ccc(-c2cc(-c3ccc4ncccc4c3)cnc2N)cn1
> 100 µg/mL	> 100 µg/mL	1.9	–	–	–	–	–	COc1ccc(-c2cc(-c3ccc(C(=O)NCCN4CCOCC4)cc3)cnc2N)cn1
25 µg/mL (≈ 58.6 µM)	> 100 µg/mL	3.3	–	–	–	–	–	Nc1ncc(-c2ccc(C(=O)N3CCNCC3)cc2)cc1-c1ccc(C(F)(F)F)cc1
6.3 µg/mL (≈ 16.9 µM)	> 100 µg/mL	2.5	–	–	–	–	–	COc1ccc(-c2cc(-c3ccc(S(C)(=O)=O)c(F)c3)cnc2N)cn1
50 µg/mL (≈ 117 µM)	> 100 µg/mL	2.4	–	–	–	–	–	Nc1ncc(-c2ccc(C(=O)N3CCNCC3)cc2)cc1-c1ccc(C(F)(F)F)nc1
6.3 µg/mL (≈ 14.7 µM)	> 100 µg/mL	3.1	200 nM	300 nM	50 nM	100 nM	1 nM	Nc1ncc(-c2ccc(C(=O)N3CCOCC3)cc2)cc1-c1ccc(C(F)(F)F)cc1

solubility kinetic [1]	solubility kinetic [2]	logD [3]	Cave [4]	concentration at 0.5 h [5]	concentration at 8 h [6]	Cave [7]	concentration at 24 h [8]	SMILES
12.5 µg/mL (≈ 33 µM)	> 100 µg/mL	–	–	–	–	–	–	COc1ccc(-c2cc(-c3ccc(C(=O)NCCCO)cc3)cnc2N)cn1
25 µg/mL (≈ 70.3 µM)	> 100 µg/mL	2.3	–	–	–	–	–	COc1ccc(-c2cc(-c3cccc(S(C)(=O)=O)c3)cnc2N)cn1
25 µg/mL (≈ 67.5 µM)	> 100 µg/mL	2.2	–	–	–	–	–	COc1ccc(-c2cc(-c3ccc(NS(C)(=O)=O)cc3)cnc2N)cn1
12.5 µg/mL (≈ 35.1 µM)	> 100 µg/mL	1.8	–	–	–	–	–	COc1ccc(-c2cc(-c3ccc(S(N)(=O)=O)cc3)cnc2N)cn1
6.3 µg/mL (≈ 16.4 µM)	> 100 µg/mL	2.8	–	–	–	–	–	COc1ccc(-c2cc(-c3ccc(S(=O)(=O)N(C)C)cc3)cnc2N)cn1
12.5 µg/mL (≈ 39 µM)	> 100 µg/mL	1.7	8200 nM	10600 nM	1300 nM	2400 nM	10 nM	COc1ccc(-c2cc(-c3ccc(C(N)=O)cc3)cnc2N)cn1
25 µg/mL (≈ 64 µM)	25 µg/mL (≈ 64 µM)	2	7800 nM	10300 nM	800 nM	–	–	COc1ccc(-c2cc(-c3ccc(C(=O)N4CCOCC4)cc3)cnc2N)cn1
6.3 µg/mL (≈ 19 µM)	> 100 µg/mL	3	–	–	–	–	–	COc1ccc(-c2cc(-c3ccc4cnn(C)c4c3)cnc2N)cn1
25 µg/mL (≈ 56.9 µM)	> 100 µg/mL	2.7	–	–	–	–	–	COc1ccc(-c2cc(-c3ccc(S(=O)(=O)N4CCN(C)CC4)cc3)cnc2N)cn1
12.5 µg/mL (≈ 33.7 µM)	> 100 µg/mL	2.2	–	–	–	–	–	CNS(=O)(=O)c1ccc(-c2cnc(N)c(-c3ccc(OC)nc3)c2)cc1
6.3 µg/mL (≈ 14.8 µM)	> 100 µg/mL	2.7	–	–	–	–	–	COc1ccc(-c2cc(-c3ccc(S(=O)(=O)N4CCOCC4)cc3)cnc2N)cn1
1.6 µg/mL (≈ 4.43 µM)	> 100 µg/mL	4.3	–	–	–	–	–	COc1ccc(-c2cc(-c3ccc(OC(F)(F)F)cc3)cnc2N)cn1
> 100 µg/mL	> 100 µg/mL	2.1	25100 nM	30800 nM	6400 nM	–	< 1 nM	COc1ccc(-c2cc(-c3ccc(C(=O)N(C)C)cc3)cnc2N)cn1
> 100 µg/mL	> 100 µg/mL	2	–	–	–	–	–	COc1ccc(-c2cc(-c3ccc(C(=O)N4CCN(C)CC4)cc3)cnc2N)cn1
12.5 µg/mL (≈ 39 µM)	> 100 µg/mL	1.7	–	–	–	–	–	COc1ccc(-c2cc(-c3cccc(C(N)=O)c3)cnc2N)cn1
12.5 µg/mL (≈ 34.8 µM)	> 100 µg/mL	2.6	–	–	–	–	–	COc1ccc(-c2cc(-c3ccc(-c4nnc(C)o4)cc3)cnc2N)cn1
6.3 µg/mL (≈ 19.6 µM)	12.5 µg/mL (≈ 38.9 µM)	0.8	–	–	–	–	–	COc1ccc(-c2cc(-c3ccc(C(=O)O)cc3)cnc2N)cn1
